# Patent publication US20250387426A1 (priority 2024, published 2025)
# Key:
# migraine headache = conditions: human, in vivo
# tension headache = conditions: human, in vivo
molecule,measurement,setting,value
C[C@@H]1[C@H](c2ccccc2)C[C@H](NC(=O)c2cnc3c(c2)C[C@@]2(C3)C(=O)Nc3ncccc32)C(=O)N1CC(F)(F)F [Ubrelvy],benefit as rescue medication,migraine headache,not helpful
CN(C)CCC=C1c2ccccc2CCc2ccccc21 [amitriptyline],benefit as migraine prophylactic agent,migraine headache,without benefit
NCC(CC(=O)O)c1ccc(Cl)cc1 (centres unmarked) [baclofen],benefit as migraine prophylactic agent,migraine headache,without benefit
same,benefit as migraine prophylaxis,migraine headache,no benefit
same,benefit from previous treatment,migraine headache,no benefit
CCCCN1CCCCC1C(=O)Nc1c(C)cccc1C (centres unmarked) [bupivacaine],pain after local anesthetic injection along superior nuchal line,migraine headache,substantially improved for two days
Oc1ccc2c(c1)[C@@]13CCCC[C@@]1(O)[C@@H](C2)N(CC1CCC1)CC3 [butorphanol],benefit as rescue medication,migraine headache,without benefit
NC(=O)N1c2ccccc2C=Cc2ccccc21 [carbamazepine],benefit as migraine prophylactic agent,migraine headache,without benefit
COC1=C(OC)C(=O)C(C/C=C(\C)CC/C=C(\C)CC/C=C(\C)CC/C=C(\C)CC/C=C(\C)CC/C=C(\C)CC/C=C(\C)CC/C=C(\C)CC/C=C(\C)CCC=C(C)C)=C(C)C1=O [coenzyme Q10],benefit as migraine prophylactic agent,migraine headache,without benefit
same,benefit as migraine prophylaxis,migraine headache,no benefit
same,effect on headache frequency,migraine headache,did not affect the frequency of their headaches
O=C(O)Cc1ccccc1Nc1c(Cl)cccc1Cl [diclofenac],benefit as rescue medication,migraine headache,without benefit
CN1CCC[C@@H]1Cc1c[nH]c2ccc(CCS(=O)(=O)c3ccccc3)cc12 [eletriptan],benefit as rescue medication,migraine headache,consistently effective
NCC1(CC(=O)O)CCCCC1 [gabapentin],benefit as migraine prophylactic agent,migraine headache,without benefit
same,benefit as migraine prophylaxis,migraine headache,no benefit
same,benefit from previous treatment,migraine headache,no benefit
CC(C)Cc1ccc(C(C)C(=O)O)cc1 (centres unmarked) [ibuprofen],benefit from previous treatment,migraine headache,no benefit
same,headache relief,tension headache,may resolve with ibuprofen
CCCCc1nc(Cl)c(CO)n1Cc1ccc(-c2ccccc2-c2nn[nH]n2)cc1 [losartan],benefit as migraine prophylaxis,migraine headache,no benefit
CCN(CC)CCNC(=O)c1cc(Cl)c(N)cc1OC [metoclopramide],tolerability,migraine headache,intolerant
C[C@]12C=CC(=O)C=C1CC[C@@H]1[C@@H]2C(=O)C[C@@]2(C)[C@H]1CC[C@]2(O)C(=O)CO [prednisone],benefit as migraine prophylactic agent,migraine headache,without benefit
CC(C)C[C@H](CN)CC(=O)O [pregabalin],benefit as migraine prophylactic agent,migraine headache,without benefit
same,comorbid neuropathic facial pain,tension headache,treated effectively
CC(C)NCC(O)COc1cccc2ccccc12 (centres unmarked) [propranolol],benefit as migraine prophylactic agent,migraine headache,without benefit
same,benefit from previous treatment,migraine headache,no benefit
same,tolerability,migraine headache,caused dizziness
Cc1cc2nc3c(=O)[nH]c(=O)nc-3n(C[C@H](O)[C@H](O)[C@H](O)CO)c2cc1C [riboflavin],effect on headache frequency,migraine headache,did not affect the frequency of their headaches
CN(C)CCc1c[nH]c2ccc(Cn3cncn3)cc12 [rizatriptan],adverse effect of rescue medication,migraine headache,severe elevation in their blood pressure
same,benefit as rescue medication,migraine headache,no longer effective
same,share of time the rescue medication worked,migraine headache,approximately 20 % of the time
Clc1ccc2nsnc2c1NC1=NCCN1 [tizanidine],benefit as migraine prophylactic agent,migraine headache,without benefit
same,benefit as migraine prophylaxis,migraine headache,partially helpful
CC1(C)O[C@@H]2[C@@H](CO[C@@]3(COS(N)(=O)=O)OC(C)(C)O[C@@H]23)O1 [topiramate],benefit as migraine prophylactic agent,migraine headache,without benefit
same,severe migraine headache frequency,migraine headache,5 to 7 days a week
same,tolerability,migraine headache,could not tolerate the side effects
CCCC(CCC)C(=O)O [valproic acid],benefit as migraine prophylactic agent,migraine headache,without benefit
"CN(C)CCc1c[nH]c2ccc(C[C@H]3COC(=O)N3)cc12 [zolmitriptan nasal spray, zolmitriptan]",benefit as rescue medication,migraine headache,without benefit
NS(=O)(=O)Cc1noc2ccccc12 [zonisamide],benefit as migraine prophylactic agent,migraine headache,without benefit
"Emgality: prophylactic agent prescribed for chronic migraine (antibody, chains of the INN, looked up, V domains shown) VH: QVQLVQSGAEVKKPGSSVKVSCKASGYTFGNYWMQWVRQAPGQGLEWMGAIYEGTGKTVYIQKFADRVTITADKSTSTAYMELSSLRSEDTAVYYCARLSDYVSGFGYWGQGTTVTVSS VL: DIQMTQSPSSLSASVGDRVTITCRASKDISKYLNWYQQKPGKAPKLLIYYTSGYHSGVPSRFSGSGSGTDFTLTISSLQPEDFATYYCQQGDALPPTFGGGTKVEIK",benefit as migraine prophylactic agent,migraine headache,without benefit
same,benefit of subsequent treatment,migraine headache,"reduced the pain somewhat, but had not reduced the frequency or duration"
same,migraine frequency,migraine headache,2 to 3 days/week
same,tolerability,migraine headache,caused unwanted side effects
same,"frequency of headaches with throbbing, light and sound sensitivity",tension headache,decreased to around once or twice per week
"Ajovy: prophylactic agent tried for migraines (antibody, chains of the INN, looked up, V domains shown) VH: EVQLVESGGGLVQPGGSLRLSCAASGFTFSNYWISWVRQAPGKGLEWVAEIRSESDASATHYAEAVKGRFTISRDNAKNSLYLQMNSLRAEDTAVYYCLAYFDYGLAIQNYWGQGTLVTVSS VL: EIVLTQSPATLSLSPGERATLSCKASKRVTTYVSWYQQKPGQAPRLLIYGASNRYLGIPARFSGSGSGTDFTLTISSLEPEDFAVYYCSQSYNYPYTFGQGTKLEIK",benefit as migraine prophylactic agent,migraine headache,without benefit
